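A five-concentration, 48-hour dose response in 96-well plates underlies each endpoint, interpolated linearly between surrounding concentrations. At the GI50, growth is halved.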 The source made the active and inactive calls. No stated cut-off is given here; in the data, active = GI50 up to about 1.1 µM and inactive = higher. Where a SMILES comes first, the peptide text is derived from it. The star is where a group is joined. Boc = CC(C)(C)OC(=O)*
Legend:
Experiment in all cases: growth of human tumour cells (NCI), 48 h
786-0 = system: 786-0
A498 = system: A498
A549 = system: A549
ACHN = system: ACHN
CAKI-1 = system: CAKI-1
CCRF-CEM = system: CCRF-CEM
COLO 205 = system: COLO 205
DU-145 = system: DU-145
EKVX = system: EKVX
HCC 2998 = system: HCC 2998
HCT-116 = system: HCT-116
HCT-15 = system: HCT-15
HL-60 = system: HL-60
HOP-62 = system: HOP-62
HOP-92 = system: HOP-92
HT-29 = system: HT-29
Hs-578T = system: Hs-578T
IGROV-1 = system: IGROV-1
K562 = system: K562
KM12 = system: KM12
LOX IMVI = system: LOX IMVI
M14 = system: M14
MCF7 = system: MCF7
MDA-MB-231 = system: MDA-MB-231
MDA-MB-435 = system: MDA-MB-435
MDA-N = system: MDA-N
MOLT-4 = system: MOLT-4
Malme-3M = system: Malme-3M
NCI-H226 = system: NCI-H226
NCI-H23 = system: NCI-H23
NCI-H460 = system: NCI-H460
NCI-H522 = system: NCI-H522
NCI/ADR-RES = system: NCI/ADR-RES
OVCAR-3 = system: OVCAR-3
OVCAR-4 = system: OVCAR-4
OVCAR-5 = system: OVCAR-5
OVCAR-8 = system: OVCAR-8
PC-3 = system: PC-3
RPMI-8226 = system: RPMI-8226
RXF 393 = system: RXF 393
SF-268 = system: SF-268
SF-295 = system: SF-295
SF-539 = system: SF-539
SK-MEL-28 = system: SK-MEL-28
SK-MEL-2 = system: SK-MEL-2
SK-MEL-5 = system: SK-MEL-5
SK-OV-3 = system: SK-OV-3
SN12C = system: SN12C
SNB-19 = system: SNB-19
SNB-75 = system: SNB-75
SR = system: SR
SW-620 = system: SW-620
T47D = system: T47D
TK-10 = system: TK-10
U-251 = system: U-251
UACC-257 = system: UACC-257
UACC-62 = system: UACC-62
UO-31 = system: UO-31
BT-549 = system: BT-549

Nc1ncnc2c1ncn2C1OC(CO)C2OC21 (stereo unspecified)
GI50 (786-0): > 10 µM (inactive)
GI50 (A498): > 100 µM (inactive)
GI50 (A549): > 100 µM (inactive)
GI50 (ACHN): > 100 µM (inactive)
GI50 (CAKI-1): > 100 µM (inactive)
GI50 (CCRF-CEM): > 100 µM (inactive)
GI50 (COLO 205): > 100 µM (inactive)
GI50 (DU-145): > 100 µM (inactive)
GI50 (EKVX): > 100 µM (inactive)
GI50 (HCC 2998): > 100 µM (inactive)
GI50 (HCT-116): > 100 µM (inactive)
GI50 (HCT-15): > 10 µM
GI50 (HL-60): > 100 µM (inactive)
GI50 (HOP-62): > 100 µM (inactive)
GI50 (HOP-92): > 100 µM (inactive)
GI50 (HT-29): > 100 µM (inactive)
GI50 (Hs-578T): > 100 µM (inactive)
GI50 (IGROV-1): > 100 µM (inactive)
GI50 (K562): 72.8 µM (inactive)
GI50 (KM12): > 100 µM (inactive)
GI50 (LOX IMVI): > 100 µM (inactive)
GI50 (M14): > 10 µM (inactive)
GI50 (MCF7): > 100 µM (inactive)
GI50 (MDA-MB-231): > 100 µM (inactive)
GI50 (MDA-MB-435): > 10 µM (inactive)
GI50 (MDA-N): > 10 µM (inactive)
GI50 (MOLT-4): > 100 µM (inactive)
GI50 (Malme-3M): > 10 µM (inactive)
GI50 (NCI-H226): > 100 µM (inactive)
GI50 (NCI-H23): > 100 µM (inactive)
GI50 (NCI-H460): > 10 µM (inactive)
GI50 (NCI-H522): > 100 µM (inactive)
GI50 (NCI/ADR-RES): > 10 µM (inactive)
GI50 (OVCAR-3): > 10 µM (inactive)
GI50 (OVCAR-4): > 100 µM (inactive)
GI50 (OVCAR-5): > 100 µM (inactive)
GI50 (OVCAR-8): > 100 µM (inactive)
GI50 (PC-3): > 100 µM (inactive)
GI50 (RPMI-8226): > 100 µM (inactive)
GI50 (RXF 393): > 100 µM (inactive)
GI50 (SF-268): > 100 µM (inactive)
GI50 (SF-295): > 100 µM (inactive)
GI50 (SF-539): > 100 µM (inactive)
GI50 (SK-MEL-28): > 100 µM (inactive)
GI50 (SK-MEL-2): > 100 µM (inactive)
GI50 (SK-MEL-5): > 100 µM (inactive)
GI50 (SK-OV-3): > 100 µM (inactive)
GI50 (SN12C): > 100 µM (inactive)
GI50 (SNB-19): > 100 µM (inactive)
GI50 (SNB-75): > 100 µM (inactive)
GI50 (SR): > 100 µM (inactive)
GI50 (SW-620): > 100 µM (inactive)
GI50 (T47D): > 100 µM (inactive)
GI50 (TK-10): > 100 µM (inactive)
GI50 (U-251): > 100 µM (inactive)
GI50 (UACC-257): > 100 µM (inactive)
GI50 (UACC-62): > 100 µM (inactive)
GI50 (UO-31): > 100 µM (inactive)

COC(=O)C(Cc1c[nH]c2ccccc12)NC(=O)C(Cc1c[nH]c2ccccc12)NC(=O)C(Cc1c[nH]c2ccccc12)NC(=O)C(Cc1c[nH]c2ccccc12)NC(=O)C(Cc1c[nH]c2ccccc12)NC(=O)C(Cc1c[nH]c2ccccc12)NC(=O)C(Cc1c[nH]c2ccccc12)NC(=O)C(Cc1c[nH]c2ccccc12)NC(=O)OC(C)(C)C (stereo unspecified) (Boc-WWWWWWWW-OMe; configuration not given here)
GI50 (786-0): > 100 µM (inactive)
GI50 (A498): 20 µM (inactive)
GI50 (A549): 86.5 µM (inactive)
GI50 (ACHN): > 100 µM (inactive)
GI50 (BT-549): > 100 µM (inactive)
GI50 (CAKI-1): > 100 µM (inactive)
GI50 (CCRF-CEM): 34.4 µM (inactive)
GI50 (DU-145): 35.5 µM (inactive)
GI50 (HCC 2998): > 100 µM (inactive)
GI50 (HCT-116): 15.3 µM (inactive)
GI50 (HCT-15): > 100 µM
GI50 (HL-60): 24.8 µM (inactive)
GI50 (HOP-62): > 100 µM (inactive)
GI50 (HT-29): > 100 µM (inactive)
GI50 (IGROV-1): 19.8 µM (inactive)
GI50 (K562): 31.8 µM (inactive)
GI50 (LOX IMVI): 63.5 µM (inactive)
GI50 (M14): 12.6 µM (inactive)
GI50 (MCF7): > 100 µM (inactive)
GI50 (MDA-MB-231): > 100 µM (inactive)
GI50 (MDA-MB-435): > 100 µM (inactive)
GI50 (MDA-N): 39.1 µM (inactive)
GI50 (MOLT-4): 44.5 µM (inactive)
GI50 (Malme-3M): 53.2 µM (inactive)
GI50 (NCI-H226): 49.3 µM (inactive)
GI50 (NCI-H23): 29 µM (inactive)
GI50 (NCI-H460): 67.6 µM (inactive)
GI50 (NCI-H522): 17.4 µM (inactive)
GI50 (OVCAR-3): 83.6 µM (inactive)
GI50 (OVCAR-4): > 100 µM (inactive)
GI50 (OVCAR-5): 37.8 µM (inactive)
GI50 (OVCAR-8): > 100 µM (inactive)
GI50 (PC-3): 65.5 µM (inactive)
GI50 (RPMI-8226): 57.9 µM (inactive)
GI50 (SF-268): > 100 µM (inactive)
GI50 (SK-MEL-28): 33.3 µM (inactive)
GI50 (SK-MEL-2): 33.6 µM (inactive)
GI50 (SK-MEL-5): 24.3 µM (inactive)
GI50 (SN12C): 72.8 µM (inactive)
GI50 (SNB-19): 46.2 µM (inactive)
GI50 (SNB-75): > 100 µM (inactive)
GI50 (SR): 59.7 µM (inactive)
GI50 (SW-620): > 100 µM (inactive)
GI50 (TK-10): 34 µM (inactive)
GI50 (U-251): 74.6 µM (inactive)
GI50 (UACC-257): 43.5 µM (inactive)
GI50 (UACC-62): 28.5 µM (inactive)
GI50 (UO-31): 53.7 µM (inactive)

Source: ChEMBL document CHEMBL1201862, “PubChem BioAssay data set” (2004)
